Reference: article PMC7867324, “Design, Synthesis and Biological Evaluation of New Pyrimidine Derivatives as Anticancer Agents” (Molecules, 2021)
Counter-ions that a name gives are not always drawn. Like-named read-outs stand apart in the source and are kept apart here.

What was measured:
[1] = system: pharynx squamous cell carcinoma FaDu; assay: In vitro proliferation assay (sulforhodamine B), FaDu; format: cell-based, human
Protocol: (§1) The possible antitumoral activity of these new compounds was analyzed by the effects exerted on the proliferation of five human tumor cell lines of different histotype. Therefore, the modifications on cell viability and replication determined by the treatment with each single compound were evaluated. The following human tumor cell lines triple-negative breast cancer MDA-MB231, colon carcinoma HT-29, glioblastoma multiforme U-87 MG, tongue squamous cell carcinoma CAL27 and pharynx squamous cell carcinoma FaDu were treated for 24 and 48 h with 10, 20, 30, 40, 50 and 60 μM of each single compound.
(§2) Anti-proliferative activities are reported in Table 2 (compounds 1b–g, 3) and Table 3 (compounds 2a–f) in comparison with reference compound 1a.
(§3) The following human tumor cell lines were utilized in the present study: glioblastoma multiforme U-87 MG, triple-negative breast cancer MDA-MB231, colon carcinoma HT-29, tongue squamous cell carcinoma CAL27 and pharynx squamous cell carcinoma FaDu, all of which obtained from the American Type Culture Collection (Manassas, VA, USA). In addition, human dermal fibroblast primary cultures (HF) used as control of non-transformed cells, had been previously established in our laboratory.
(§4) The cells were grown at 37 °C and 5% CO2 in Dulbecco’s modified Eagle’s medium or RPMI 1640 medium supplemented with 10% fetal bovine serum, 2 mM glutamine and 50 U/mL penicillin-streptomycin (Sigma-Aldrich).
(§5) All compounds were solubilized in dimethylsulfoxide (DMSO) (Sigma) for a 10 mM stock solution and utilized to final concentrations from 100 nM to 60 μM for 24 and 48 h. Control cells were treated with equivalent amounts of DMSO in every experiment.
(§6) To determine cytotoxicity, a sulforhodamine B colorimetric assay was performed. Cells (1.5 × 10^4) were plated in a 96-well plate, grown for 24 h and then treated with different concentrations of each compound for 24 and 48 h at 37 °C. Cells were then fixed with 50% trichloroacetic acid for 1 h at 4 °C and stained for 30 min at room temperature with 0.4% sulforhodamine B in 1% acetic acid. Excess dye was removed by washing four times with 1% acetic acid. Protein-bound dye was dissolved in 10 mM Tris (pH 10), and optical density was determined at 510 nm using a microplate reader. Each experiment was performed three times and the media was calculated.

[2] = system: tongue squamous cell carcinoma CAL27; assay: In vitro proliferation assay (sulforhodamine B), CAL27; format: cell-based, human
Protocol: as §1, §2, §3, §4, §5, §6

[3] = system: glioblastoma multiforme U-87 MG; assay: In vitro proliferation assay (sulforhodamine B), U-87 MG; format: cell-based, human
Protocol: as §1, §2, §3, §4, §5, §6

[4] = system: triple-negative breast cancer MDA-MB231; assay: In vitro proliferation assay (sulforhodamine B), MDA-MB231; format: cell-based, human
Protocol: as §1, §2, §3, §4, §5, §6

colon carcinoma HT-29 = assay: In vitro proliferation assay (sulforhodamine B), HT-29; format: cell-based, human
Protocol: as §1, §2, §3, §4, §5, §6

[5] = Cytotoxicity on normal cells (sulforhodamine B), HF; format: cell-based, human; conditions: human, human dermal fibroblast primary cultures (HF), 48 h
Protocol: as §3, §4, §5, §6

[6] = system: human cancer cells of different histotypes; set-up: method as in PMID 30900116; conditions: cited from earlier work
[7] = system: five human tumor cell lines (HT-29, U-87 MG, MDA-MB231, CAL27, FaDu); assay: In vitro proliferation assay, summary over all tested tumor cell lines; format: cell-based; conditions: for EC50: Homo sapiens, all tested tumor cell lines, read-out: EC50s over the tested cell lines
Protocol: as §1, §2, §3, §4, §5, §6

[8] = system: human dermal fibroblasts (HF); assay: Cytotoxicity on normal cells (sulforhodamine B), HF; format: cell-based
Protocol: as §3, §4, §5, §6

[9] = Homo sapiens, CAL-27, 48 h, 48 h
[10] = Homo sapiens, MDA-MB-231, 48 h, 48 h
[11] = Homo sapiens, HT-29, 48 h, 48 h
[12] = Homo sapiens, CAL-27, 24 h, 24 h
[13] = Homo sapiens, HT-29, 24 h, 24 h

EC50 ([1]; Homo sapiens, FaDu, 48 h) [µM]	EC50 [2, 9] [µM]	EC50 ([3]; Homo sapiens, U-87 MG, 48 h) [µM]	EC50 [4, 10] [µM]	EC50 (colon carcinoma HT-29; [11]) [µM]	EC50 ([7]; time not given) [µM]	EC50 (colon carcinoma HT-29; [13]) [µM]	SMILES	CC50 at 48 h [5] [µM]	also measured
8.5	4.3	7.5	7.9	5.4	4 to 8	10.2	CCN(CC)CCCNc1cc(N)nc(N(Cc2ccc(F)cc2)c2cccc(Cl)c2)n1 [Compound 2a, N^2-(3-chlorophenyl)-N^4-(3-(diethylamino)propyl)-N^2-(4-fluorobenzyl)pyrimidine-2,4,6-triamine]	50.2	negative regulation of growth (cell viability, Figure 3) ([7]; 1, 10, 20, 50 μM, 24 h and 48 h, each tumor cell line): significant at various concentrations and times; EC50 ([7]; 24 h of treatment): 10 to 26 µM; EC50 ([7]; 48 h of treatment): 5 to 8 µM; fold more active than 1a ([7]; vs hit 1a (RDS 3442), all tested cell lines, 48 h of treatment): 4–13 fold; EC50 ([1]; Homo sapiens, FaDu, 24 h): 26.2 µM; EC50 [2, 12]: 9.7 µM; EC50 ([3]; Homo sapiens, U-87 MG, 24 h): 22 µM; EC50 ([4]; Homo sapiens, MDA-MB-231, 24 h, 24 h): 18 µM; negative regulation of growth (cell viability, Figure 3) ([8]; 1, 10, 20, 50 μM, 24 h and 48 h, normal fibroblasts): only weakly significant and exclusively at high concentrations at 48 h
23.8	5.1	17.7	7.3	10.4	–	20.2	CCN(CC)CCCNc1cc(N)nc(N(Cc2ccc(F)cc2)c2cccc(F)c2)n1 [Compound 2b, N^4-(3-(diethylamino)propyl)-N^2-(4-fluorobenzyl)-N^2-(3-fluorophenyl)pyrimidine-2,4,6-triamine]	54.7	–
18	14.9	19.8	27.2	18.3	15 to 35	34.7	CCN(CC)CCCNc1cc(N)nc(N(Cc2ccc(F)cc2)c2cccc(OC)c2)n1 [Compound 2c, N^4-(3-(diethylamino)propyl)-N^2-(4-fluorobenzyl)-N^2-(3-methoxyphenyl)-pyrimidine-2,4,6-triamine]	50.3	EC50 ([1]; 48 h): 18.2 µM; folds more active than 3 ([1]; FaDu, 48 h of treatment, 2c vs 3): about 2.5 folds
20.5	10.3	30.1	17.3	12.7	–	25.2	CCN(CC)CCCNc1cc(N)nc(N(Cc2ccc(F)cc2)c2cccc([N+](=O)[O-])c2)n1 [Compound 2d, N^4-(3-(Diethylamino)propyl)-N^2-(4-fluorobenzyl)-N^2-(3-nitrophenyl)pyrimidine-2,4,6-triamine]	55.2	–
> 60	59.3	> 60	> 60	> 60	> 60	–	CCCN(CCC)c1cc(N)nc(N(Cc2ccc(F)cc2)c2cccc(Cl)c2)n1 [Compound 2e, N^2-(3-Chlorophenyl)-N^2-(4-fluorobenzyl)-N^4,N^4-dipropylpyrimidine-2,4,6-triamine]	–	–
> 60	45	> 60	58.3	30	–	–	CCCN(CCC)c1cc(N)nc(N(Cc2ccc(F)cc2)c2ccc(Cl)cc2F)n1 [Compound 2f, N^2-(4-Chloro-2-fluorophenyl)-N^2-(4-fluorobenzyl)-N^4,N^4-dipropylpyrimidine-2,4,6-triamine]	–	EC50 ([2]; 48 h): 45.4 µM

The next lines start with the compound.

SMILES	EC50 ([1]; Homo sapiens, FaDu, 48 h) [µM]	EC50 [2, 9] [µM]	EC50 ([3]; Homo sapiens, U-87 MG, 48 h) [µM]	EC50 [4, 10] [µM]	EC50 (colon carcinoma HT-29; [11]) [µM]	EC50 ([7]; time not given) [µM]	EC50 (colon carcinoma HT-29; [13]) [µM]	CC50 at 48 h [5] [µM]	also measured
CCN(CC)CCCNc1cc(N)nc(Nc2cccc(Cl)c2)n1 [Compound 1a, N^2-(3-Chlorophenyl)-N^4-(3-(diethylamino)propyl)pyrimidine-2,4,6-triamine]	> 60	54.2	> 60	34.8	51.8	–	–	> 60	effect on cell cycle ([6]; 20 μM): upregulation of p21 and p27 and blockage of the cell cycle at G0/G1; induction of apoptosis ([6]; 30–50 μM): induced apoptosis
CCN(CC)CCCNc1cc(N)nc(Nc2cccc(F)c2)n1 [Compound 1b, N^4-(3-(Diethylamino)propyl)-N^2-(3-fluorophenyl)pyrimidine-2,4,6-triamine]	43.4	20	47.3	35.7	29.8	–	–	88	EC50 ([2]; 48 h): 20.3 µM
CCN(CC)CCCNc1cc(N)nc(Nc2cccc(OC)c2)n1 [Compound 1c, N^4-(3-(Diethylamino)propyl)-N^2-(3-methoxyphenyl)pyrimidine-2,4,6-triamine]	71	57	> 60	70.5	57	> 60	–	–	–
CCN(CC)CCCNc1cc(N)nc(Nc2cccc([N+](=O)[O-])c2)n1 [Compound 1d, N^4-(3-(Diethylamino)propyl)-N^2-(3-nitrophenyl)pyrimidine-2,4,6-triamine]	46.8	35.3	54.9	49.2	40.4	–	–	97	–
CCCN(CCC)c1cc(N)nc(Nc2cccc(Cl)c2)n1 [Compound 1e, N^2-(3-chlorophenyl)-N^4,N^4-dipropylpyrimidine-2,4,6-triamine]	–	–	–	–	–	–	–	–	EC50 ([7]; 48 h of treatment): 25 to 45 µM; EC50 ([1]; 48 h): 29.7 µM; EC50 ([2]; 48 h): 24.7 µM; EC50 ([3]; 48 h): 45.3 µM; EC50 ([4]; 48 h): 34.2 µM; EC50 (colon carcinoma HT-29; 48 h): 28.5 µM; CC50 ([8]; 48 h): 68 µM; cytotoxic activity on normal somatic cells, not cytotoxic up to [8]: > 60 µM
CCCN(CCC)c1cc(N)nc(Nc2cccc(Cl)c2)n1 [Compound 1e-HCl, N^2-(3-chlorophenyl)-N^4,N^4-dipropylpyrimidine-2,4,6-triamine hydrochloride]	39.8	30.3	36.6	50.2	29.3	–	–	> 60	–
CCCN(CCC)c1cc(N)nc(Nc2ccc(Cl)cc2F)n1 [Compound 1f, N^2-(4-Chloro-2-fluorophenyl)-N^4,N^4-dipropylpyrimidine-2,4,6-triamine]	67	55	> 60	58	50	50 to 75	–	98	–
CN1CCN(c2cc(N)nc(Nc3cccc(Cl)c3)n2)CC1 [Compound 1g, N^2-(3-Chlorophenyl)-6-(4-methylpiperazin-1-yl)pyrimidine-2,4-diamine]	87	60	> 60	55	60	–	–	–	–
COc1cccc(Nc2cc(N)nc(Nc3cccc(OC)c3)n2)c1 [Compound 3, N^2,N^4-bis(3-Methoxyphenyl)pyrimidine-2,4,6-triamine]	–	10.4	22.9	10.2	11.7	–	28.2	65	EC50 ([7]; 48 h of treatment): ≤ 20 µM; EC50 ([1]; Homo sapiens, FaDu, 24 h): 42.1 µM; EC50 [2, 12]: 20.3 µM; cytotoxic activity on normal somatic cells, not cytotoxic up to [8]: > 60 µM
